Values after ≈ are worked out from the molar mass of the structure shown. Values joined by “and” are separate entries in the source; they are usually repeats but may differ in a detail not shown here. Equal values may be shown once. Read-outs that look alike come from different tables or passages of the source.
Columns and labels:
[1] = test system: erm37 mRNA; assay type: cell-based, Mycobacterium tuberculosis; conditions: inducer at 0.25µg/ml overnight, normalized to 23S
[2] = test system: Mtb methylated ribosome; test: Mtb in vitro translation assay with methylated (erythromycin-treated) ribosome; assay type: biochemical, Mycobacterium tuberculosis
[3] = test system: Mtb ribosome; assay type: biochemical, Mycobacterium tuberculosis
[4] = test system: M. bovis BCG Pasteur; test: microbe, parasite or virus in culture; assay type: cell-based, Mycobacterium bovis; conditions: for MIC: read-out: MIC in Pasteur M. bovis BCG
[5] = test system: Mtb H37Rv; test: microbe, parasite or virus in culture; assay type: cell-based, Mycobacterium tuberculosis; conditions: read-out: MIC for Mtb in liquid culture
[6] = test system: Mtb H37Rv; test: MIC80 after overnight pre-incubation of Mtb with subinhibitory macrolide; assay type: cell-based; conditions: Mycobacterium tuberculosis, read-out: MIC80
[7] = test system: GFP-expressing Mtb H37Rv in RAW264.7 macrophages; test: Intramacrophage assay (MIC for Mtb in macrophages); assay type: cell-based, Mycobacterium tuberculosis; conditions: for MIC: Mycobacterium tuberculosis, H37RV, read-out: MIC for Mtb tuberculosis in macrophages
[8] = in vitro; assay type: in vitro ADME; conditions: human, Caco-2; read-out: Permeability in Caco2 cells (Papp)
[9] = test system: RAW264.7 cells; assay type: in vitro ADME, murine; conditions: versus neutral analog SEQ-416
Method: RAW264.7 cells were allowed to adhere in 96 wells plates for 4 hours before compounds were added at 10 μM. Intracellular concentrations were measured by LC-MS/MS after cellular lysis. For each point, up to 4 hours, the Intra/Extra cellular ratio was calculated. Points are the mean ± SD of four tests. Clarithromycin and Azithromycin were used as references.

[10] = assay type: in vitro ADME
[11] = in vivo; conditions: male, Swiss, mouse, po; for AUC: 30 mg/kg, oral 30 mg/kg
[12] = physchem; assay type: physicochemical
[13] = molecular target: T1, CYP3A4 (Homo sapiens, UniProt P08684); test: CYP3A4 reversible inhibition in human liver microsomes; assay type: in vitro ADME
T1 construct: human liver microsomes (purchased from BD Gentest as a pooled batch from 150 donors); tissue BD Gentest Cat#452117; host or cells: pooled human liver microsomes (150 donors)
T1 sequence (P08684 whole entry): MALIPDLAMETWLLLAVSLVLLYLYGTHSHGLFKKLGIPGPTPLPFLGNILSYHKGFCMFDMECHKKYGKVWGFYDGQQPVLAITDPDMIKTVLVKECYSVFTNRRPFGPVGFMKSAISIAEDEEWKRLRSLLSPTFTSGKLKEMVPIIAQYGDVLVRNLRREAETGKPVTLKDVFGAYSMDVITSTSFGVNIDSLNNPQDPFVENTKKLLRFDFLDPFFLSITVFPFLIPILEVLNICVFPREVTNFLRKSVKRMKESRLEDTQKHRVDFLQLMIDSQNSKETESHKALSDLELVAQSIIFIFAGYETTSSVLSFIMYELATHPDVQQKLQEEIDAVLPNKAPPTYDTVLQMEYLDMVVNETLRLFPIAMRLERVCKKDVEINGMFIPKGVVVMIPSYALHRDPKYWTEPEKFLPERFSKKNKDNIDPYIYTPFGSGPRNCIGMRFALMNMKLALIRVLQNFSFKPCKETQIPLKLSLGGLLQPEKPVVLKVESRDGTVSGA
Method: Incubations were performed with 0.1 mg/mL human liver microsomes (purchased from BD Gentest as a pooled batch from 150 donors) in a final incubation volume of 0.25 mL. The incubation medium contained 0.05 M phosphate buffer (pH 7.4) containing an NADPH regenerating system (including 1.3 mM NADP, 3.3 mM glucose 6-phosphate,3.3 mM MgCl2, and 1.0 U/mL glucose 6-phosphate dehydrogenase). Probe CYP3A4 substrates (midazolam at 3 μM and testosterone at 50 μM), were incubated for 10 and 30 min, respectively, with increasing concentrations of GM, MGM or CGM (concentration range: 1 - 30 μM). The reaction was stopped by adding acetonitrile to precipitate the proteins. The incubation mixtures were then centrifuged for 5 min at 10,000 × g, and an aliquot of the supernatant was analyzed using high-performance liquid chromatography coupled to mass spectrometry for the assessment of 1’-hydroxymidazolam and 6β-hydroxytestosterone metabolite formation.

[14] = physchem
[15] = physchem; conditions: pH 7.4
[16] = assay type: in vitro ADME; remark: listed apart in the source
[17] = pH 2, 50% acetonitrile/water
[18] = assay type: in vitro ADME; remark: listed apart in the source
[19] = assay type: in vitro ADME, human; conditions: for Metabolic stability in human liver microsomes (% metabolized compound after 20 min): 20 min incubation; for Metabolic stability in human liver microsomes (% metabolized compound after 20 min), (K): in presence of ketoconazole CYP3A inhibitor (K); for Metabolic stability in human liver microsomes (% metabolized compound after 20 min), (Q): in presence of quinidine CYP2D6 inhibitor (Q)
Method: The metabolic stability of test compounds was determined as described.[57]^,[58] Incubation and experimental conditions with human hepatic microsomal fractions (purchased from BD Gentest as a pooled batch from 6 donors) were as follows: microsomal proteins, 1 mg/mL; bovine serum albumin, 1 mg/mL; substrate, 5 μM; incubation duration, 20 min; cytochrome P-450 monooxygenases (CYPs) and flavin containing monooxygenases (FMOs) cofactor, 1 mM NADPH. Enzyme activity was stopped with 1 volume of acetonitrile. […] For each test compound and for each microsomal preparation, three incubations were prepared: absolute reference in buffer (without enzyme material, i.e., microsomes); incubation without NADPH cofactor (with microsomal fractions); and incubation with NADPH (with microsomal fractions). For most compounds, biotransformation, as observed in hepatic microsomal fractions in the presence of the NADPH cofactor, consists of oxidative reactions catalyzed by either CYPs or FMOs. In these conditions, the percentage of total metabolism, which corresponds to oxidative metabolism, was determined as follows: [% total metabolism] ≈ [% oxidative metabolism] = [unchanged compound (UC) peak area − NADPH UC peak area + NADPH] × 100%, where NADPH corresponds to the enzyme cofactor for oxidation reactions catalyzed by either CYP or FMO.

[20] = Mycobacterium tuberculosis variant bovis BCG, BCG
[21] = read-out: Translation inhibition of Mtb methylated ribosome (IC50 μM)
[22] = AUC in plasma @30 mg/kg, plasma
[23] = MCT pH 7.4, read-out: Solubility: MCT@pH 7.4
[24] = aqueous buffer, PBS pH 7.4, read-out: Solubility: PBS@pH 7.4
[25] = read-out: Inhibition of Mtb translation (IC50 μM)
[26] = midazolam, read-out: CYP3A4 inhibition, IC50 with midazolam as substrate
[27] = testosterone, read-out: CYP3A4 inhibition, IC50 with testosterone as substrate (T)
[28] = Mycobacterium tuberculosis, H37RV

| SMILES | MIC [4, 20] [µM] | MIC [7] [µM] | Papp [8] [×10⁻⁶ cm/s] | IC50 [2, 21] [µM] | Metabolic stability in rat liver microsomes (% metabolized compound after 20 min) [10] [%] | bioavailability [11] [%] | AUC ([11]; AUC in lung @30 mg/kg, lung) [ng·h/mL] | AUC [11, 22] [ng·h/mL] | solubility [12, 23] [µg/mL] | solubility [12, 24] [µg/mL] | IC50 [3, 25] [µM] | IC50 [13, 26] [µM] | IC50 [13, 27] [µM] | logD [15] | Metabolic stability in mouse liver microsomes (% metabolized compound after 20 min) [16] [%] | Chemical stability: t/12@pH 2 [17] | MIC [5, 28] [µM] | Metabolic degradation/clearance from human liver microsomes [18] [mL/h/10^6 hepatocytes] | Metabolic stability in human liver microsomes (% metabolized compound after 20 min) [19] [%] | Metabolic stability in human liver microsomes (% metabolized compound after 20 min), (K) [19] | also measured |
| --- | --- | --- | --- | --- | --- | --- | --- | --- | --- | --- | --- | --- | --- | --- | --- | --- | --- | --- | --- | --- | --- |
| CC[C@H]1OC(=O)[C@H](C)[C@@H](O[C@H]2C[C@@](C)(OC)[C@@H](O)[C@H](C)O2)[C@H](C)[C@@H](O[C@@H]2O[C@H](C)C[C@H](N(C)C)[C@H]2O)[C@](C)(OC)C[C@@H](C)C(=O)[C@H](C)[C@@H](O)[C@]1(C)O [Clarithromycin] | 0.1 (≈ 0.0748 µg/mL) | – | – | – | – | – | – | – | – | – | – | – | – | – | – | – | – | – | – | – | erm37 mRNA fold change [1]: 57 fold change; IC50 ([2]; methylated ribosome, read-out: IC50 methylated ribosome): 88.1 µM; IC50 ([3]; non-methylated ribosome, read-out: IC50 ribosome): 0.354 µM; MIC ([5]; listed as clarithromycin): 8 µM (≈ 5.98 µg/mL); MIC [5]: 2 µM (≈ 1.5 µg/mL); MIC80 ([6]; Without induction): 2 µM (≈ 1.5 µg/mL); MIC80 ([6]; overnight pre-incubation with SEQ-9 0.125µg/ml): 4 µM (≈ 2.99 µg/mL); MIC80 ([6]; overnight pre-incubation with SEQ-9 0.25µg/ml): 8 µM (≈ 5.98 µg/mL); MIC80 ([6]; overnight pre-incubation with clarithromycin 0.125µg/ml): 8 µM (≈ 5.98 µg/mL); MIC80 ([6]; overnight pre-incubation with clarithromycin 0.25µg/ml): 8 µM (≈ 5.98 µg/mL) |
| CON=C1C[C@@H](C)O[C@@H](O[C@@H]2[C@@H](C)[C@H](O[C@H]3C[C@@H](C)N(C)C[C@H](C)O3)[C@@H](C)C(=O)O[C@H](C(C)CO[C@@H]3O[C@H](C)[C@@H](O)[C@@H](OC)[C@H]3OC)[C@H](C)[C@@H](OC(=O)CC(C)C)[C@@H](C)C(=O)[C@@](C)(OC(=O)NCc3ccccc3)C[C@@H]2C)[C@@H]1O (stereo partly drawn) [SEQ-372, (2R,3S,4R,5R,7S,9S,10S,11R,12S,13R)-7-[(benzylcarbamoyl)oxy]-2-(1-{[(2R,3R,4R,5R,6R)-5-hydroxy-3,4-dimethoxy-6-methyltetrahydro-2H-pyran-2-yl]oxy}propan-2-yl)-10-{[(2S,3R,6R)-3-hydroxy-4-(methoxyimino)-6-methyltetrahydro-2H-pyran-2-yl]oxy}-3,5,7,9,11,13-hexamethyl-6,14-dioxo-12-{[(2S,5R,7R)-2,4,5-trimethyl-1,4-oxazepan-7-yl]oxy}oxacyclotetradecan-4-yl 3-methylbutanoate] | 0.28 (≈ 0.314 µg/mL) | 0.06 (≈ 0.0673 µg/mL) | 2.2 | 0.054 | 22 | 17 | 18000 | 900 | 1420 (≈ 1270 µM) | 58.8 (≈ 52.4 µM) | 0.039 | 1.2 | 3.8 | 4.93 | 8 | ∼25 h | 0.54 (≈ 0.606 µg/mL) | 0.006 | 33 | 19(K) % | Increased potency against Mtb in the macrophage compared with SEQ-416 ([7]; versus SEQ-416): approximately 10 fold; Increase in macrophage accumulation compared with SEQ-416 [9]: 20 fold; Cytochrome 3A4 inhibition (in words) ([13]; human, pH 7.4): inhibited cytochrome 3A4; pKa [14]: 8.2; Growth inhibition (MIC80) [4]: 0.29 µM and 0.25 µM and 0.34 µM; MIC80 ([4]; Mycobacterium tuberculosis variant bovis BCG, BCG, read-out: Growth inhibition (MIC80)): 0.28 µM (≈ 0.314 µg/mL); Metabolic stability in human liver microsomes (% metabolized compound after 20 min), (Q) [19]: /32 (Q) % |
| CO/N=C1\C[C@@H](C)O[C@@H](O[C@@H]2[C@@H](C)[C@H](O[C@H]3C[C@@](C)(O)[C@@H](O)[C@H](C)O3)[C@@H](C)C(=O)O[C@H]([C@@H](C)CO[C@@H]3O[C@H](C)[C@@H](O)[C@@H](OC)[C@H]3OC)[C@H](C)[C@@H](OC(=O)CC(C)C)[C@@H](C)C(=O)[C@@](C)(OC(=O)NCc3ccccc3)C[C@@H]2C)[C@@H]1O [SEQ-416, [(2R,3S,4R,5R,7S,9S,10S,11R,12S,13R)-7-(benzylcarbamoyloxy)-12-[(2R,4R,5S,6S)-4,5-dihydroxy-4,6-dimethyl-tetrahydropyran-2-yl]oxy-2-[(1S)-2-[(2R,3R,4R,5R,6R)-5-hydroxy-3,4-dimethoxy-6-methyl-tetrahydropyran-2-yl]oxy-1-methyl-ethyl]-10-[(2S,3R,4E,6R)-3-hydroxy-4-methoxyimino-6-methyl-tetrahydropyran-2-yl]oxy-3,5,7,9,11,13-hexamethyl-6,14-dioxo-oxacyclotetradec-4-yl] 3-methylbutanoate] | – | 0.63 (≈ 0.709 µg/mL) | 10.4 | 0.031 | 22 | 21 | 4800 | 4000 | 599 (≈ 532 µM) | 22 (≈ 19.5 µM) | 0.044 | 3 | 10 | 4.5 | 25 | ∼6 h | 0.15 (≈ 0.169 µg/mL) | 0.057 | 40 | 0.5(K) % | Metabolic stability in human liver microsomes (% metabolized compound after 20 min), (Q) [19]: /35(Q) % |
